For 31 molecules, inhibition and Activity results are on record in ChEMBL document CHEMBL5143558, “Synthesis of sorbicillinoid analogues with anti-inflammation activities” (Bioorg Med Chem, 2022).

Series [1] relates to RAW264.7. The experiment in a line: Anti-inflammatory activity in mouse RAW264.7 cells assessed as inhibition of LPS-induced NO production at 10 uM. The class given is functional, cell-based.
Series [2] concerns RAW264.7. The experiment in a line: Anti-inflammatory activity in mouse RAW264.7 cells assessed as inhibition of LPS-induced iNOS protein expression at 10 uM incubated for 24 hrs by Western blot analysis. The class given is functional, cell-based. On the technique in general: Immunoblotting shows a protein as a band on a membrane.
The nature of series [3]: Toxicity in mouse RAW264.7 cells assessed as reduction in cell vaibility at 10 uM. The class given is cell-based. The conditions noted are these: raw264.7, 10 µM.
Series [4] deals with RAW264.7. The experiment in a line: Anti-inflammatory activity in mouse RAW264.7 cells assessed as inhibition of LPS-induced iNOS protein expression at 1 to 20 uM incubated for 24 hrs by Western blot analysis. Format: functional, cell-based. The conditions noted are these: dose 1-20 µM, DDE = dose-dependent effect.
Series [5] relates to RAW264.7. In words: Anti-inflammatory activity in mouse RAW264.7 cells assessed as inhibition of LPS-induced NO production at 1 to 20 uM incubated for 24 hrs. Format: functional, cell-based. The conditions noted are these: dose 1-20 µM, DDE = dose-dependent effect.
Series [6] in a line: Toxicity in mouse RAW264.7 cells assessed as reduction in cell vaibility at 20 uM incubated for 24 hrs. The class given is cell-based. The conditions noted are these: raw264.7, 24 h.
Series [7] concerns RAW264.7. The experiment in a line: Anti-inflammatory activity in mouse RAW264.7 cells assessed as inhibition of LPS-induced p-NFkappaB protein expression at 10 uM incubated for 24 hrs by Western blot analysis. The class given is functional, cell-based.
Series [8] relates to RAW264.7. In words: Anti-inflammatory activity in mouse RAW264.7 cells assessed as inhibition of LPS-induced NO production at 20 uM. Format: functional, cell-based.

Activity calls are given as the source filed them. The rule behind the calls is not given here.

On to `C/C=C/C(=O)c1cc(C)c(O)cc1O`, for which the inhibition result in the series on RAW264.7 [1] and in the series on RAW264.7 [2] was “Active” each time. In addition, the Activity result in series [3] is listed as “Non-Toxic”.
In the case of `COc1cc(O)c(C(=O)/C=C/c2ccccc2)cc1C`, the inhibition entry in the series with RAW264.7 [1] and in the series with RAW264.7 [2] was “Active” in each case. Also, the Activity entry in series [3] was “Non-Toxic”.
`COc1cc(OC)c(C(=O)/C=C/c2cc(OC)c(OC)c(OC)c2)cc1C`: the inhibition result in the series with RAW264.7 [1] and with RAW264.7 [2] was “Active” each time. In addition, in series [3], the Activity result is recorded as “Non-Toxic”.
Consider `COc1cc(/C=C/C(=O)c2cc(C)c(O)c(C)c2O)cc(OC)c1OC`, for which the inhibition result with RAW264.7 [1] and in the series with RAW264.7 [2] was “Active” each time. Moreover, the Activity result in series [3] and in series [6] was “Non-Toxic” each time. In addition, the inhibition result in the series with RAW264.7 [4] and in the series with RAW264.7 [5] was “Dde” throughout.
`CC(C)=CC(=O)Oc1c(C)cc(C(=O)C=C(C)C)c(O)c1C`: the inhibition result in the series on RAW264.7 [1] and in the series with RAW264.7 [2] was “Active” each time. Moreover, the Activity entry in series [3] is recorded as “Non-Toxic”.
In the case of `Cc1cc(C(=O)/C=C/c2ccc3c(c2)OCO3)c(O)c(C)c1O`, in the series with RAW264.7 [2], the inhibition entry is “Active”. The Activity entry in series [3] is “Non-Toxic”.
`C/C=C/C=C/C(=O)Oc1c(C)cc(C(=O)/C=C/C=C/C)c(O)c1C`: the inhibition entry in the series with RAW264.7 [1] and in the series with RAW264.7 [2] was “Active” each time. Further, the Activity entry in series [3] is “Non-Toxic”.
In the case of `C/C=C/C(=O)c1cc(C)c(O)c(C)c1O`, the inhibition result with RAW264.7 [1] and in the series with RAW264.7 [2] was “Active” in each case. Besides, in series [3], the Activity result is on record as “Non-Toxic”.
In the case of `Cc1cc(C(=O)/C=C/c2ccc(F)cc2)c(O)c(C)c1OC(=O)/C=C/c1ccc(F)cc1`, the inhibition entry in the series on RAW264.7 [2] is “Active”. Also, the Activity result in series [3] was “Non-Toxic”.
As for `C/C=C/C(=O)Oc1c(C)cc(C(=O)/C=C/C)c(O)c1C`, the inhibition result in the series with RAW264.7 [1] and in the series with RAW264.7 [2] was “Active” each time. In addition, the Activity result in series [3] is “Non-Toxic”.
`COc1cc(OC)c(C(=O)/C=C/c2ccccc2)cc1C`: the inhibition result in the series with RAW264.7 [1] and in the series on RAW264.7 [2] was “Active” throughout. Further, the Activity result in series [3] is “Non-Toxic”.
Consider `COc1ccc(/C=C/C(=O)c2cc(C)c(O)c(C)c2O)cc1`, for which the inhibition result in the series with RAW264.7 [1] and in the series on RAW264.7 [2] was “Active” throughout. Moreover, the Activity entry in series [3] was “Non-Toxic”.
Regarding `COc1cc(OC)c(C(=O)/C=C/c2ccc(F)cc2)cc1C`, the inhibition entry with RAW264.7 [1] and in the series on RAW264.7 [2] was “Active” each time. For the same molecule, the Activity result in series [3] is given as “Non-Toxic”.
In the case of `Cc1cc(C(=O)/C=C/c2ccccc2)c(O)c(C)c1O`, the inhibition result with RAW264.7 [7], with RAW264.7 [1] and in the series with RAW264.7 [2] was “Active” in each case. Further, the Activity result in series [3] is recorded as “Non-Toxic”.
Consider `Cc1cc(C(=O)/C=C/c2ccc(F)cc2)c(O)cc1O`, for which the inhibition entry with RAW264.7 [1] and in the series with RAW264.7 [2] was “Active” throughout. Further, the Activity result in series [3] is “Non-Toxic”.
As for `Cc1ccc(/C=C/C(=O)c2cc(C)c(O)c(C)c2O)cc1`, the inhibition result in the series with RAW264.7 [1] and with RAW264.7 [2] was “Active” each time. In addition, in series [3], the Activity result is on record as “Non-Toxic”.
In the case of `Cc1cc(C(=O)/C=C/c2ccc(F)cc2)c(O)c(C)c1O`, the inhibition entry in the series with RAW264.7 [1] and in the series on RAW264.7 [2] was “Active” each time. Further, the Activity result in series [3] and in series [6] was “Non-Toxic” throughout. Further, the inhibition entry in the series on RAW264.7 [4] and in the series on RAW264.7 [5] was “Dde” in each case.
For `COc1cc(O)c(C(=O)/C=C/c2ccc(F)cc2)cc1C`, the inhibition entry with RAW264.7 [1] and in the series on RAW264.7 [2] was “Active” in each case. The Activity result in series [3] is recorded as “Non-Toxic”.
With `Cc1cc(C(=O)/C=C/c2ccccc2)c(O)cc1O`, the inhibition result with RAW264.7 [1] and in the series with RAW264.7 [2] was “Active” throughout. Besides, the Activity entry in series [3] is “Non-Toxic”.
As to `COc1cc(/C=C/C(=O)c2cc(C)c(OC)c(C)c2OC)cc(OC)c1OC`, the inhibition entry with RAW264.7 [1] and with RAW264.7 [2] was “Active” in each case. Further, the Activity result in series [3] is listed as “Non-Toxic”.
`C[C@]12CCC(=O)C=C1CC[C@@H]1[C@@H]2[C@@H](O)C[C@@]2(C)[C@H]1CC[C@]2(O)C(=O)CO`: in the series with RAW264.7 [8], the inhibition entry is “Active”.
Take `C/C=C/C(=O)c1cc(C)c(OC)cc1OC`: the inhibition result in the series with RAW264.7 [1] and with RAW264.7 [2] was “Active” each time. Further, in series [3], the Activity entry is “Non-Toxic”.
With `Cc1ccc(OC(=O)/C=C/c2ccc(Cl)cc2)c(C)c1OC(=O)/C=C/c1ccc(Cl)cc1`, the inhibition result in the series on RAW264.7 [1] and in the series with RAW264.7 [2] was “Active” throughout. For the same molecule, in series [3], the Activity entry is recorded as “Non-Toxic”.
Consider `COc1ccc(/C=C/C(=O)c2cc(C)c(OC)cc2OC)cc1`, for which the Activity entry in series [3] is given as “Non-Toxic”.
In the case of `COc1cc(/C=C/C(=O)CC(=O)/C=C/c2ccc(O)c(OC)c2)ccc1O`, the inhibition result with RAW264.7 [8] is “Active”.
In the case of `Cc1cc(C(=O)/C=C/c2ccc(Cl)cc2)c(O)c(C)c1OC(=O)/C=C/c1ccc(Cl)cc1`, the inhibition result in the series on RAW264.7 [2] was “Active”. Moreover, the Activity entry in series [3] is on record as “Non-Toxic”.
Regarding `Cc1cc(C(=O)CCc2ccccc2)c(O)c(C)c1O`, the inhibition entry with RAW264.7 [7] is “Active”. The Activity entry in series [3] is on record as “Non-Toxic”.
As for `C/C=C/C=C/C(=O)Oc1ccc(C)c(OC(=O)/C=C/C=C/C)c1C`, the Activity entry in series [3] is given as “Non-Toxic”.
For `CC(C)=CC(=O)Oc1ccc(C)c(OC(=O)C=C(C)C)c1C`, in the series on RAW264.7 [7], the inhibition entry is “Active”. Moreover, the Activity result in series [3] is given as “Non-Toxic”.
Turning to `C/C=C/C(=O)c1cc(C)c(OC)c(C)c1OC`, the inhibition entry with RAW264.7 [1] and in the series with RAW264.7 [2] was “Active” in each case. Moreover, in series [3], the Activity entry is recorded as “Non-Toxic”.
As for `C/C=C/C=C/C(=O)c1cc(C)c(O)c(C)c1O`, the inhibition entry in the series on RAW264.7 [7] and in the series with RAW264.7 [1] was “Active” in each case. Further, the Activity result in series [3] is “Non-Toxic”.
